Assays:
CD4+CFSElo cells = assay: T cell receptor V alpha gene sequencing of CD4+CFSElo cells after proliferation to peptide; type: cell-based, human; conditions: three HLA matched T1D subjects with two non-β57Asp DQ alleles; CD4+CFSElo cells vs baseline
Description: Three individuals had TCR α-chain sequencing performed on sorted CD4 T cells before peptide proliferation and then on CD4+CFSElo cells after one week of proliferation. Total RNA was directly extracted from sorted cells using the RNeasy Mini kit (Qiagen) for cells before proliferation and the PicoPure RNA isolation kit (Life Technologies) for those after proliferation. […] To amplify TCR-α and TCR-β chains, a two-step PCR was performed. PCR reactions were generated for α- and β-chains separately using the Universal Primer A Mix supplied from the SMARTer RACE cDNA Amplification Kit along with a primer designed on the constant region of α-[…] NO:22)) and β-chains […] NO:23)), respectively. The first PCR products were further amplified with nested primers ligated with the 454 adaptor sequences containing a multiple identifier sequence: forward primer for both α- and β-chains ([NT] NO:24)), reverse primer for α-chains […] NO:25)-multiple identifier sequence-[…] NO:26), and reverse primer for β-chains […] […] All sequences obtained from 454 sequencing were analyzed by the […]-QUEST algorithm (45) to identify Vgene, Jgene, and junction sequences, followed by additional analysis by in-house software to determine frequencies of Vgene usages by individual TCR sequences. Vgene frequencies determined by mean values from the 12 PCR reactions were analyzed for individual samples. […]

[1] = test system: B:9-23 specific CD4 T cells; conditions: presented by IAg7; cited from earlier work

SHLVEALYLVCGEEG [B: 9-23 B22E, B:9-23 mimotope; B22 arginine to glutamic acid]
TCR V gene usage of alpha chains before and after proliferation (CD4+CFSElo cells): skewing with several V alpha genes and one V delta gene | stimulates B:9-23 specific CD4 T cells better than the wild type peptide [1]: about 100 fold

Reference: patent US10363288B2, “Insulin mimotopes and methods of using the same” (THE REGENTS OF THE UNIVERSITY OF COLORADO, a body corporate, priority 2015, dated 2019)
